Positions of bridges follow the written chain, without caps; N, C: chain ends. Non-standard residues stand in square brackets, D forms with d. Residues, ends and D or L forms follow the SMILES beside them. Groups on a side chain read outwards from the residue. *: point of attachment. Acetyl(2-S-cholesteryl) = CC(C)CCC[C@@H](C)[C@H]1CC[C@H]2[C@@H]3CC=C4C[C@@H](SCC(=O)*)CC[C@]4(C)[C@H]3CC[C@]12C; PEG16 = NCCOCCOCCOCCOCCOCCOCCOCCOCCOCCOCCOCCOCCOCCOCCOCCOCCC(=O)O; R8 = C=CCCCCCC[C@@](C)(N)C(=O)O; S5 = C=CCCC[C@](C)(N)C(=O)O
How the values were obtained:
[1] = system: GFP-RSV live virus (RSV A2)
[2] = system: A549 cells

Q: With `CC[C@H](C)[C@H](NC(=O)[C@H](CO)NC(=O)[C@H](C)NC(=O)[C@H](CC(=O)O)NC(=O)[C@H](Cc1ccccc1)NC(C)=O)C(=O)N[C@@H](CO)C(=O)N[C@@H](CCC(N)=O)C(=O)N[C@H](C(=O)N[C@@H](CC(N)=O)C(=O)N[C@@H](CCC(=O)O)C(=O)N[C@@H](CCCCN)C(=O)N[C@H](C(=O)N[C@@H](CC(N)=O)C(=O)N[C@@H](CCC(N)=O)C(=O)N[C@@H](CO)C(=O)N[C@@H](CC(C)C)C(=O)N[C@]1(C)CCCCCCC=CCCC[C@@](C)(C(=O)N[C@@H](CC(C)C)C(=O)N[C@@H](CC(C)C)C(=O)N[C@@H](Cc2c[nH]cn2)C(=O)N[C@@H](CC(N)=O)C(=O)N[C@H](C(=O)N[C@@H](CCCCNC(=O)CCOCCOCCOCCOCCOCCOCCOCCOCCOCCOCCOCCOCCOCCOCCOCCOCCNC(=O)CS[C@H]2CC[C@@]3(C)C(=CC[C@H]4[C@@H]5CC[C@H]([C@H](C)CCCC(C)C)[C@@]5(C)CC[C@@H]43)C2)C(N)=O)C(C)C)NC(=O)[C@H](CC(=O)O)NC(=O)[C@H](CO)NC(=O)[C@H](CCCCN)NC(=O)[C@H](CCCNC(=N)N)NC(=O)[C@H]([C@@H](C)CC)NC(=O)[C@H](Cc2ccccc2)NC1=O)[C@@H](C)CC)C(C)C` [SLI-RSV] (Ac-FDASISQVNEKINQSL[R8]FIRKSD[S5]LLHNVK([PEG16-Acetyl(2-S-cholesteryl)])-NH2; staple 17-24) as the molecule, how does the IC50 [1] read?
A: 58 nM

Q: And the cytotoxicity [2]?
A: no cytotoxicity

Source: article PMC10766962 (Nature Communications, 2024)
